Non-standard residues stand in square brackets, D forms with d. Residues, ends and D or L forms follow the SMILES beside them. *: point of attachment. Dolaproine = CO[C@@H]([C@@H]1CCCN1)[C@@H](C)C(=O)O; Dil = CC[C@H](C)[C@H](NC)[C@@H](CC(=O)O)OC; Phe(4-NH2) = Nc1ccc(C[C@H](N)C(=O)O)cc1; X9 = Cc1cc(-c2nc3cc(F)ccc3s2)ccc1N*; NMeαMePro = CN1CCC[C@@]1(C)C(=O)*; N(CH2CH2)2NH = C1CN(*)CCN1; X13 = c1ccc(C2(CN*)CC2)cc1; X1 = CN1CCC[C@]1(C)C(=O)*; NMeAib = CNC(C)(C)C(=O)O; Aib = CC(C)(N)C(=O)O; NHtBu = CC(C)(C)N*; OtBu = CC(C)(C)O*
Assays:
Assay in all cases: In vitro cell assay, MTS cell viability 96 hours after treatment
Assay type in all cases: cell-based
[1] = system: BT474 (breast cancer); settings: Homo sapiens, BT-474, BT474 cells; geometric mean; cytotoxic peptides; read-out: BT474 GMEAN IC50
Protocol: (§1) Cells were treated with 3-fold serially diluted antibody-drug conjugates or free compounds (i.e., no antibody conjugated to the drug) in duplicate at 10 concentrations. Cell viability was determined by CellTiter 96® AQueous One Solution Cell Proliferation MTS Assay (Promega, Madison Wis.) 96 hours after treatment. Relative cell viability was determined as percentage of untreated control.

[2] = system: MDA-MB-361-DYT2 (breast cancer); settings: read-out: MDA-MB-361-DYT2 GMEAN IC50, MDA-MB-361-DYT2 cells; geometric mean; cytotoxic peptides
Protocol: as §1

[3] = system: N87 (gastric cancer); settings: read-out: N87 GMEAN IC50, N87 cells; geometric mean; cytotoxic peptides
Protocol: as §1

Compound	IC50 [1]	IC50 [2]	IC50 [3]
CC[C@H](C)[C@@H]([C@@H](CC(=O)N1CCC[C@H]1[C@H](OC)[C@@H](C)C(=O)N[C@@H](Cc1ccccc1)C(=O)N1CCNCC1)OC)N(C)C(=O)[C@@H](NC(=O)[C@]1(C)CCCN1C)C(C)C [#245] (NMeαMePro-V[Dil][Dolaproine]F-{N(CH2CH2)2NH})	11.8 nM	31.9 nM	33 nM
CC[C@H](C)[C@@H]([C@@H](CC(=O)N1CCC[C@H]1[C@H](OC)[C@@H](C)C(=O)N[C@@H](Cc1ccccc1)C(=O)OC(C)(C)C)OC)N(C)C(=O)[C@@H](NC(=O)C(C)(C)NC)C(C)C [#130, N,2-dimethylalanyl-N-[(3R,4S,5S)-1-{(2S)-2-[(1R,2R)-3-{[(2S)-1-tert-butoxy-1-oxo-3-phenylpropan-2-yl]amino}-1-methoxy-2-methyl-3-oxopropyl]pyrrolidin-1-yl}-3-methoxy-5-methyl-1-oxoheptan-4-yl]-N-methyl-L-valinamide] (H-[NMeAib]V[Dil][Dolaproine]F-OtBu)	0.05 nM	0.039 nM	
CC[C@H](C)[C@@H]([C@@H](CC(=O)N1CCC[C@H]1[C@H](OC)[C@@H](C)C(=O)NCC1(c2ccccc2)CC1)OC)N(C)C(=O)[C@@H](NC(=O)C(C)(C)N)C(C)C [#60, 2-methylalanyl-N-[(3R,4S,5S)-3-methoxy-1-{(2S)-2-[(1R,2R)-1-methoxy-2-methyl-3-oxo-3-{[(1-phenylcyclopropyl)methyl]amino}propyl]pyrrolidin-1-yl}-5-methyl-1-oxoheptan-4-yl]-N-methyl-L-valinamide] (H-[Aib]V[Dil][Dolaproine]-X13)	0.524 nM	0.957 nM	
CC[C@H](C)[C@@H]([C@@H](CC(=O)N1CCC[C@H]1[C@H](OC)[C@@H](C)C(=O)N[C@@H](Cc1ccccc1)C(=O)Nc1ccc(-c2nc3cc(F)ccc3s2)cc1C)OC)N(C)C(=O)[C@@H](NC(=O)C(C)(C)N)C(C)C [#235] (H-[Aib]V[Dil][Dolaproine]F-X9)	0.852 nM	1.28 nM	
CC[C@H](C)[C@@H]([C@@H](CC(=O)N1CCC[C@H]1[C@H](OC)[C@@H](C)C(=O)NCCC1C=CC=CC=C1)OC)N(C)C(=O)[C@@H](NC(=O)[C@@]1(C)CCCCN1)C(C)C [#180, (2R)—N-[(2S)-1-{[(3R,4S,5S)-1-{(2S)-2-[(1R,2R)-3-{[2-(cyclohepta-2,4,6-trien-1-yl)ethyl]amino}-1-methoxy-2-methyl-3-oxopropyl]pyrrolidin-1-yl}-3-methoxy-5-methyl-1-oxoheptan-4-yl](methyl)amino}-3-methyl-1-oxobutan-2-yl]-2-methylpiperidine-2-carboxamide]	0.159 nM	0.113 nM	
CC[C@H](C)[C@@H]([C@@H](CC(=O)N1CCC[C@H]1[C@H](OC)[C@@H](C)C(=O)N[C@@H](Cc1ccccc1)C(=O)NC(C)(C)C)OC)N(C)C(=O)[C@@H](NC(=O)C(C)(C)NC)C(C)C [#144, N,2-dimethylalanyl-N-{(1S,2R)-4-{(2S)-2-[(1R,2R)-3-{[(1S)-1-benzyl-2-(tert-butylamino)-2-oxoethyl]amino}-1-methoxy-2-methyl-3-oxopropyl]pyrrolidin-1-yl}-2-methoxy-1-[(1S)-1-methylpropyl]-4-oxobutyl}-N-methyl-L-valinamide] (H-[NMeAib]V[Dil][Dolaproine]F-NHtBu)	0.172 nM	0.174 nM	
CC[C@H](C)[C@@H]([C@@H](CC(=O)N1CCC[C@H]1[C@H](OC)[C@@H](C)C(=O)N[C@@H](Cc1ccc(N)cc1)C(=O)OC)OC)N(C)C(=O)[C@@H](NC(=O)[C@@]1(C)CCCN1C)C(C)C [#201, 1,2-dimethyl-D-prolyl-N-[(3R,4S,5S)-1-{(2S)-2-[(1R,2R)-3-{[(2S)-3-(4-aminophenyl)-1-methoxy-1-oxopropan-2-yl]amino}-1-methoxy-2-methyl-3-oxopropyl]pyrrolidin-1-yl}-3-methoxy-5-methyl-1-oxoheptan-4-yl]-N-methyl-L-valinamide] (X1-V[Dil][Dolaproine][Phe(4-NH2)]-OMe)	0.144 nM	0.121 nM	
